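Method: 48-hour compound exposure of cells in 96-well plates, five concentrations, linear interpolation of endpoints. GI50 marks 50% less growth. TGI marks complete inhibition of growth.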
Assays:
Assay in all cases: NCI tumour cell line growth inhibition, 48 h
[1] = test system: 786-0 renal
[2] = test system: A498 renal
[3] = test system: A549 NSCLC
[4] = test system: ACHN renal
[5] = test system: BT-549 breast
[6] = test system: CCRF-CEM leukemia
[7] = test system: COLO 205 colon
[8] = test system: DU-145 prostate
[9] = test system: EKVX NSCLC
[10] = test system: HCC-2998 colon
[11] = test system: HCT-116 colon
[12] = test system: HCT-15 colon
[13] = test system: HL-60(TB) leukemia
[14] = test system: HOP-62 NSCLC
[15] = test system: HOP-92 NSCLC
[16] = test system: HS 578T breast
[17] = test system: HT29 colon
[18] = test system: IGROV1 ovarian
[19] = test system: K-562 leukemia
[20] = test system: KM12 colon
[21] = test system: LOX IMVI melanoma
[22] = test system: MALME-3M melanoma
[23] = test system: MCF7 breast
[24] = test system: MDA-MB-231 breast
[25] = test system: MDA-MB-435
[26] = test system: MOLT-4 leukemia
[27] = test system: NCI-H226 lung
[28] = test system: NCI-H23 lung
[29] = test system: NCI-H460 lung
[30] = test system: NCI-H522 lung
[31] = test system: NCI/ADR-RES ovarian
[32] = test system: OVCAR-3 ovarian
[33] = test system: OVCAR-4 ovarian
[34] = test system: OVCAR-8 ovarian
[35] = test system: PC-3 prostate
[36] = test system: RPMI-8226 leukemia
[37] = test system: RXF 393 renal
[38] = test system: SF-268 CNS
[39] = test system: SF-295 CNS
[40] = test system: SF-539 CNS
[41] = test system: SK-MEL-28 melanoma
[42] = test system: SK-MEL-5 melanoma
[43] = test system: SNB-19 CNS
[44] = test system: SNB-75 CNS
[45] = test system: SR leukemia
[46] = test system: SW-620 colon
[47] = test system: T-47D breast
[48] = test system: TK-10 renal
[49] = test system: U251 CNS
[50] = test system: UACC-257 melanoma
[51] = test system: UACC-62 melanoma
[52] = test system: UO-31 renal
[53] = test system: M14 melanoma
[54] = test system: OVCAR-5 ovarian
[55] = test system: SK-MEL-2 melanoma
[56] = test system: SK-OV-3 ovarian
[57] = test system: SN12C renal

Cc1nc2ccc(F)cc2c(Cl)c1CCCl
TGI [1]: > 100 µM
TGI [2]: > 100 µM
TGI [3]: > 100 µM
TGI [4]: > 100 µM
TGI [5]: > 100 µM
TGI [6]: 48.4 µM
TGI [7]: 47.2 µM
TGI [8]: > 100 µM
TGI [9]: > 100 µM
TGI [10]: 84.9 µM
TGI [11]: 92.8 µM
TGI [12]: > 100 µM
TGI [13]: 35 µM
TGI [14]: > 100 µM
TGI [15]: > 100 µM
TGI [16]: > 100 µM
TGI [17]: > 100 µM
TGI [18]: > 100 µM
TGI [19]: 68.2 µM
TGI [20]: > 100 µM
TGI [21]: 82.8 µM
TGI [22]: 87.6 µM
TGI [23]: 90.1 µM
TGI [24]: 73.8 µM
TGI [25]: 82.5 µM
TGI [26]: 98.6 µM
TGI [27]: > 100 µM
TGI [28]: > 100 µM
TGI [29]: > 100 µM
TGI [30]: 93.6 µM
TGI [31]: > 100 µM
TGI [32]: > 100 µM
TGI [33]: > 100 µM
TGI [34]: > 100 µM
TGI [35]: > 100 µM
TGI [36]: > 100 µM
TGI [37]: 79.9 µM
TGI [38]: > 100 µM
TGI [39]: > 100 µM
TGI [40]: > 100 µM
TGI [41]: > 100 µM
TGI [42]: 52.7 µM
TGI [43]: > 100 µM
TGI [44]: > 100 µM
TGI [45]: 44.9 µM
TGI [46]: > 100 µM
TGI [47]: > 100 µM
TGI [48]: > 100 µM
TGI [49]: > 100 µM
TGI [50]: > 100 µM
TGI [51]: 94.6 µM
TGI [52]: > 100 µM

C=C1C(=O)O[C@H]2[C@H]1CC/C(COC(=O)CCCc1c[nH]c3ccccc13)=C\CC[C@@]1(C)O[C@@H]21
GI50 [1]: 1.6 µM
TGI [1]: 3.2 µM
GI50 [2]: 11.9 µM
TGI [2]: 24.3 µM
GI50 [3]: 5.47 µM
TGI [3]: 22.4 µM
GI50 [5]: 1.37 µM
TGI [5]: 3.06 µM
GI50 [6]: 0.715 µM
TGI [6]: 7.5 µM
GI50 [7]: 1.86 µM
TGI [7]: 3.79 µM
GI50 [8]: 1.67 µM
TGI [8]: 3.18 µM
GI50 [9]: 2.02 µM
TGI [9]: 5.01 µM
GI50 [10]: 1.79 µM
TGI [10]: 3.46 µM
GI50 [11]: 0.963 µM
TGI [11]: 2.36 µM
GI50 [12]: 1.61 µM
TGI [12]: 3.99 µM
GI50 [13]: 1.63 µM
TGI [13]: 5.01 µM
GI50 [14]: 6.54 µM
TGI [14]: 19.6 µM
GI50 [15]: 1.68 µM
TGI [15]: 3.46 µM
GI50 [16]: 3.19 µM
TGI [16]: 20.9 µM
GI50 [17]: 1.71 µM
TGI [17]: 3.37 µM
GI50 [18]: 1.63 µM
TGI [18]: 3.61 µM
GI50 [19]: 2.6 µM
TGI [19]: 11 µM
GI50 [20]: 1.89 µM
TGI [20]: 4.31 µM
GI50 [21]: 1.55 µM
TGI [21]: 2.95 µM
GI50 [53]: 1.66 µM
TGI [53]: 3.87 µM
GI50 [22]: 1.79 µM
TGI [22]: 3.56 µM
GI50 [23]: 1.42 µM
TGI [23]: 3.85 µM
GI50 [24]: 1.78 µM
TGI [24]: 3.7 µM
GI50 [25]: 1.74 µM
TGI [25]: 3.55 µM
GI50 [26]: 1.53 µM
TGI [26]: 4.94 µM
GI50 [27]: 2.04 µM
TGI [27]: 4.38 µM
GI50 [28]: 1.72 µM
TGI [28]: 3.47 µM
GI50 [29]: 4.54 µM
TGI [29]: 19.2 µM
GI50 [30]: 1.57 µM
TGI [30]: 3.47 µM
GI50 [31]: 2.9 µM
TGI [31]: 10.9 µM
GI50 [32]: 1.53 µM
TGI [32]: 3.02 µM
GI50 [33]: 1.66 µM
TGI [33]: 3.28 µM
GI50 [54]: 1.89 µM
TGI [54]: 3.98 µM
GI50 [34]: 3.38 µM
TGI [34]: 11.2 µM
GI50 [35]: 1.92 µM
TGI [35]: 4.62 µM
GI50 [36]: 2.31 µM
TGI [36]: 6.09 µM
GI50 [37]: 1.46 µM
TGI [37]: 2.85 µM
GI50 [38]: 1.69 µM
TGI [38]: 3.46 µM
GI50 [39]: 5.69 µM
TGI [39]: 19 µM
GI50 [40]: 1.63 µM
TGI [40]: 3.07 µM
GI50 [55]: 1.96 µM
TGI [55]: 5.39 µM
GI50 [41]: 1.7 µM
TGI [41]: 3.27 µM
GI50 [42]: 1.74 µM
TGI [42]: 3.13 µM
GI50 [56]: 17.3 µM
TGI [56]: 32.8 µM
GI50 [57]: 1.9 µM
TGI [57]: 4.44 µM
GI50 [43]: 2.59 µM
TGI [43]: 7.87 µM
GI50 [44]: 12.6 µM
TGI [44]: 26.6 µM
GI50 [45]: 1.73 µM
TGI [45]: 6.37 µM
GI50 [46]: 1.84 µM
TGI [46]: 4.36 µM
GI50 [47]: 2.17 µM
TGI [47]: 4.81 µM
GI50 [48]: 1.64 µM
TGI [48]: 3.07 µM
GI50 [49]: 1.95 µM
TGI [49]: 3.67 µM
GI50 [50]: 2.03 µM
TGI [50]: 3.96 µM
GI50 [51]: 1.84 µM
TGI [51]: 3.79 µM
GI50 [52]: 1.41 µM
TGI [52]: 2.73 µM
